Here are results for two molecules from PMC3660600, “Brevilin A, a Novel Natural Product, Inhibits Janus Kinase Activity and Blocks STAT3 Signaling in Cancer Cells” (PLoS ONE, 2013).

For one test, the target named is T1, JAK1 (Homo sapiens, UniProt P23458).
T1 construct: JH1 domain
In words: total tyrosine, STAT3 and STAT1 phosphorylation in HEK293T over-expressing JAK1-JH1, Western blot. The test is classed as cell-based.

Another test addresses T2, JAK3 (Homo sapiens, UniProt P52333).
T2 construct: JH1 domain
The experiment in a line: total tyrosine, STAT3 and STAT1 phosphorylation in HEK293T over-expressing JAK3-JH1, Western blot. The test is classed as cell-based. Background: In western blotting, separated proteins are transferred to a membrane and probed.

For a further test, the target named is T3, Tyk2 (Homo sapiens, UniProt P29597).
T3 construct: JH1 tyrosine kinase domain, C-terminal Flag-His tag, purified from HEK293T
T3 sequence (P29597 880-1187 limits assumed): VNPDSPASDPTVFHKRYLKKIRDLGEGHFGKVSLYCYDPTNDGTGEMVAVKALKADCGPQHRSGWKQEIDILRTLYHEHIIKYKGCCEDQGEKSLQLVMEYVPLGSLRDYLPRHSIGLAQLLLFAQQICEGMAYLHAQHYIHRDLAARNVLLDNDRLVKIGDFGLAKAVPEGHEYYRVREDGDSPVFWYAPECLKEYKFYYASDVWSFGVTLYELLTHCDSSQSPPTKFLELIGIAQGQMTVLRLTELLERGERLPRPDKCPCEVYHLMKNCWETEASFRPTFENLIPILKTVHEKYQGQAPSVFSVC
In words: in vitro kinase assay with purified Tyk2-JH1 and recombinant hSTAT3 substrate, Western blot pTyr705-STAT3 ([…]). The test is classed as biochemical.

Another test concerns the target c-Src (Homo sapiens, UniProt P12931). In words: phosphotyrosine Western blot of immunoprecipitated Flag-c-Src from treated HEK293T cells ([…], […] h). The test is classed as cell-based.

T1 sequence (P23458 875-1153 limits assumed): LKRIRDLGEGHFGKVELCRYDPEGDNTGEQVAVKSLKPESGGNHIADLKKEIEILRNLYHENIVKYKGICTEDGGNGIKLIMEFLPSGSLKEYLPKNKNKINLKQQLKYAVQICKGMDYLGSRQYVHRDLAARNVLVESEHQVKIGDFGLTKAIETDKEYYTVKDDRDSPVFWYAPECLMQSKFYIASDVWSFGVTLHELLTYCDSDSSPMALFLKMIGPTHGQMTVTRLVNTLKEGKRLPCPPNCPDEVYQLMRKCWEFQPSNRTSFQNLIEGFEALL
Chain of c-Src (P12931 2-536): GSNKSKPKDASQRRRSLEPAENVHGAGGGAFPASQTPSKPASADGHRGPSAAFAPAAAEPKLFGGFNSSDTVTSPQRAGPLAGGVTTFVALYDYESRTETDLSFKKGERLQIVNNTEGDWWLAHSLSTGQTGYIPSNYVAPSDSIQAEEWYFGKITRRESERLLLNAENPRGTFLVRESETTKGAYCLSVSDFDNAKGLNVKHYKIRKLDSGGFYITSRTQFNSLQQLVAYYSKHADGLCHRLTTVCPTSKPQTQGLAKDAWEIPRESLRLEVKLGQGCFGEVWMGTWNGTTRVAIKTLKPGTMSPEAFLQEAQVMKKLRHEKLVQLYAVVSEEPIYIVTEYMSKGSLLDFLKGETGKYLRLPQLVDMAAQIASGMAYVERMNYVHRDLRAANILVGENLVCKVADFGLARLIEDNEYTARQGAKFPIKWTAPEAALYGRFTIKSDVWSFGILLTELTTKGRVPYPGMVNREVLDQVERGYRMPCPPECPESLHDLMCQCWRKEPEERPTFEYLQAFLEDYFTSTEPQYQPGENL
T2 sequence (P52333 781-1124 limits assumed): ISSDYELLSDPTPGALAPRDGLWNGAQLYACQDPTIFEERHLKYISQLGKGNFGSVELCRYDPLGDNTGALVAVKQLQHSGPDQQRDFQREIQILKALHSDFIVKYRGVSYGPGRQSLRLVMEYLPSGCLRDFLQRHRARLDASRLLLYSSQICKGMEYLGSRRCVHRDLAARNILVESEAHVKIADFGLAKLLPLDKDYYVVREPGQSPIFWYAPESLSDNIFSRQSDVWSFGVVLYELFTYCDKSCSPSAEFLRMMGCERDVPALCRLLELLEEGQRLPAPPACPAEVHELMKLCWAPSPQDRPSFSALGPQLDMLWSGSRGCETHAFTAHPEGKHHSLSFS

Regarding `C/C=C(/C)C(=O)O[C@H]1[C@@H]2[C@H](C)C(=O)O[C@@H]2C[C@@H](C)[C@@H]2C=CC(=O)[C@]21C` [Brevilin A], the IC50 result at JAK1 and against JAK3 was “IC50 measurements of four JAKs-JH1 truncated kinases” throughout. Also, the “in vitro kinase assay with purified Tyk2-JH1 and recombinant hSTAT3 substrate, W” value on Tyk2 is on record as “Western-Blot showed that Brevilin A inhibited Tyk2-JH1 kinase activity directly”.

Take `Cc1cc(Nc2ncc3cc(-c4c(Cl)cccc4Cl)c(=O)n(C)c3n2)ccc1F` [PD-180970]: on c-Src, the “phosphotyrosine Western blot of immunoprecipitated Flag-c-Src from treated HEK29” value is “IP results showed that PD180970 was able to decrease Src phosphorylation while Brevilin A was not”.
